Laboratory results: US20190350964A1, “ANTI-CANCER COMPOUNDS AND USES THEREOF” (NATIONAL UNIVERSITY OF SINGAPORE, priority 2016, published 2019)

Legend:
[1] = target: T1, RNA-binding motif, single-stranded-interacting protein 1 (Homo sapiens, UniProt P29558); experiment: MS-CETSA in normal BJ cell lysates; details: Uniprot B4DN88, lysate, 100 μM compound
T1 construct: After collecting data covering >8,000 proteins in lysates of normal BJ cells; endogenous in cells; host or cells: normal BJ cells, lysate
Protocol: (§1) Target identification was performed by cellular thermal shift assay (CETSA) coupled with quantitative mass spectrometry. In brief, normal BJ cells were lysed by combination of freeze/thaw and mechanical shearing with needle in buffer [50 mM HEPES (pH 7.5), 5 mM β-glycerophosphate, 0.1 mM Sodium Vanadate, 10 mM MgCl2, 1 mM TCEP and 1× Protease inhibitor Cocktail]. The cell debris was removed by centrifugation at 20,000 g for 20 min at 4° C. […] Each lysate was divided into 10 aliquots for heat treatment at the respective temperatures for 3 min in a 96-well thermocycler, followed by 3 min at 4° C. The lysate was centrifuged at 20,000 g for 20 min at 4° C. and the supernatant was transferred into microtubes for MS sample preparation.
(§2) After lysis, at least 100 μg of the protein (measured with a BCA assay) was subjected to reduction, denaturation and alkylation. Samples were subsequently incubated with sequencing grade LysC (Wako) and trypsin (Promega) for digestion overnight at 37° C. The digested samples were dried using a centrifugal vacuum evaporator, solubilized in 100 mM TEAB. […]
(§3) Proteins for which a low temperature plateau was not present were deleted using a cut off >0.85 for the average reading of the first three temperature points (in our experience proteins melting already at −37° C. are more prone to give false positives in a shift analysis).

Ras/Raf/MEK/ERK pathway = experiment: Immunoblot of ERK phosphorylation; type: cell-based, human; details: normal BJ cells, 24 h
Protocol: Total cell lysates were prepared with 1% triton lysis buffer [25 mM Tris HCl (pH 8.0), 150 mM NaCl, 1% triton-X100, 1 mM dithiothreitol (DTT), protease inhibitor mix (Complete Mini, Roche) and phosphatase inhibitor (PhosphoStop, Roche)] and subjected to SDS-PAGE. The following antibodies were used for immunoblotting: anti-β-actin (Sigma-Aldrich), anti-cleaved PARP (Abcam, #ab32064), anti-PI5P4Kα (#5527), anti-PI5P4Kβ (#9694), anti-cleaved caspase-3 (#9664), anti-pHistone H3(Ser10) (#3377), anti-pAkt(S473) (#9271), anti-pAkt(T308) (#13038), anti-total Akt (#9272), anti-p70S6K(T389) (#9234), anti-total p70S6K (#9202), anti-pErk (#4370), anti-γ-Histone H2AX (#9718) (Cell signaling) and anti-PIK3IP1 (Proteintech, #16826-1-AP). The secondary antibodies used were sheep anti-mouse IgG HRP and donkey anti-rabbit IgG HRP (Amersham; 1:2000 dilution). Immunoreactive proteins were visualized using ECL reagent (Amersham). Where indicated, intensities of protein bands were quantified by densitometry (Odyssey V3.0), normalized to their loading controls and then calculated as fold expression change relative to DMSO control.

U2OS = experiment: MTT cytotoxicity test (GI50); type: cell-based; details: Homo sapiens, cancer, others, bone, MTT 72 h
[2] = tested on: Ras-driven glioma initiating cells (GICs); experiment: Brain slice explants (orthotopically implanted ex vivo model); set-up: species or system mouse; details: 20 μM, 4 days
Protocol: Fifty thousand GICs were orthotopically implanted into the forebrain of wild-type mice, and at 7 days post-implantation, brain slice explants were established as previously described (Sampetrean, O. et al., Neoplasia 13: 784-791 (2011)). […] Images were acquired on an FV10i Olympus confocal microscope (Olympus) and tumor area was quantified by Nikon NIS-element software. Experiments were performed in triplicate. At the end of the experiment (Day 4), slices were fixed overnight in 4% paraformaldehyde, embedded in paraffin and then sectioned at a thickness of 4 μm. Deparaffinized sections were stained with rabbit polyclonal antibody against cleaved caspase 3 (Cell Signaling). Immune complexes were detected using Histofine (Nichirei Biosciences) and ImmPACTDAB (Vector Laboratories). All animal experiments were performed in accordance with the animal care guidelines of Keio University.

WI38 = experiment: MTT cytotoxicity test (GI50); type: cell-based; details: Homo sapiens, WI-38; WI38, normal, lung; MTT 72 h
PIK3IP1 = experiment: qRT-PCR and immunoblot of PIK3IP1 in BJ cells; type: cell-based, human; details: 5 μM, 24 h
Protocol: Total RNA was isolated from cultured cells using the RNeasy mini kit (Qiagen). cDNA was synthesized from 1 μg of total RNA using the iScript cDNA synthesis kit (Bio-Rad). qRT-PCR analysis was performed using the iQ SYBR Green Super mix (Bio-Rad) using the following gene-specific primers:
human PI5P4Kα (5′-[…]-3′; SEQ ID NO: 11, 5′-[…]-3′; SEQ ID NO: 12), human PI5P4Kβ (5′-[…]-3′; SEQ ID NO: 13, 5′-[…]-3′; SEQ ID NO: 14), human PI5P4Kγ (5′-[…]-3′; SEQ ID NO: 15, 5′-[…]-3′; SEQ ID NO: 16) and human PIK3IP1 (5′-[…]-3′; SEQ ID NO: 17, 5′-[…]-3′; SEQ ID NO: 18). The TATA-binding protein (TBP) gene was used for normalization. All PCR reactions were performed in triplicate.
Total cell lysates were prepared with 1% triton lysis buffer [25 mM Tris HCl (pH 8.0), 150 mM NaCl, 1% triton-X100, 1 mM dithiothreitol (DTT), protease inhibitor mix (Complete Mini, Roche) and phosphatase inhibitor (PhosphoStop, Roche)] and subjected to SDS-PAGE. […] Where indicated, intensities of protein bands were quantified by densitometry (Odyssey V3.0), normalized to their loading controls and then calculated as fold expression change relative to DMSO control.

HT29 = experiment: MTT cytotoxicity test (GI50); type: cell-based; details: Homo sapiens, HT-29; HT29, cancer, colon; MTT 72 h
[3] = tested on: Ras-driven glioma initiating cells (GICs); experiment: Sphere formation assay; type: cell-based, murine; details: 5 μM, 7 days
Protocol: Murine glioma-initiating cells (GICs) were established and cultured as described previously (Saga, I. et al., Neuro. Oncol. 16: 1048-1056 (2014)). Briefly, Ink4a/Arf-null neural stem/progenitor cells were transduced with human H-RasV12 and DsRed and propagated in serum-free Dulbecco modified Eagle medium (DMEM)/F12 (Sigma-Aldrich) supplemented with recombinant epidermal growth factor (EGF; PeproTech) and basic fibroblast growth factor (PeproTech) at 20 ng/ml, heparan sulfate (Sigma-Aldrich) at 200 ng/ml and B27 supplement without vitamin A (Invitrogen, Carlsbad, Calif.). GICs were dissociated and plated in 96-well plates at a density of 100 cells/well. […] Three plates were prepared for each treatment group, and 30 wells were quantified per plate. Images were acquired on a BZ-X700 inverted fluorescence microscope (Keyence). Quantification was performed by Nikon NIS-element software (n=90).

[4] = target: T2, MIP18 family protein FAM96A (Homo sapiens, UniProt Q9H5X1); experiment: MS-CETSA in normal BJ cell lysates; type: binding; details: lysate, 100 μM compound
T2 construct: After collecting data covering >8,000 proteins in lysates of normal BJ cells; endogenous in cells; host or cells: normal BJ cells, lysate
Protocol: as §1, §2, §3

SNU-16 = experiment: MTT cytotoxicity test (GI50); type: cell-based; details: Homo sapiens; SNU-16, cancer, gastric; MTT 72 h

T2 sequence (Q9H5X1 whole entry): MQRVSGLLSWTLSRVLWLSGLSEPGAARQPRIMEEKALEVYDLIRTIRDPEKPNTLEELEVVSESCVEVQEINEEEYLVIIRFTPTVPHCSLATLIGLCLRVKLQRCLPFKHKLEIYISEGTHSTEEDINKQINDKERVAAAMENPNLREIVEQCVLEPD
T1 sequence (P29558 whole entry): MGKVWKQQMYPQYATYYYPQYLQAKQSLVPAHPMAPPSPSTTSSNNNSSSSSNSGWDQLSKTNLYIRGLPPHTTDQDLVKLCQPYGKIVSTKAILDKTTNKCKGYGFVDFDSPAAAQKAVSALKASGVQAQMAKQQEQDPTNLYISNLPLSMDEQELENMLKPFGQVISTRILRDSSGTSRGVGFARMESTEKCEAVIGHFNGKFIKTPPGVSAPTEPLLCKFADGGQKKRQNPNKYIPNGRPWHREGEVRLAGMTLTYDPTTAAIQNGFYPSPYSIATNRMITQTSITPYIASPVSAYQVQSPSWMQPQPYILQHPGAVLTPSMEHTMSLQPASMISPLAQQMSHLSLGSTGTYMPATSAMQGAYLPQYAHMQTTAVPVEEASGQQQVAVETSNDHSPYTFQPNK

N#C/C(=C\c1cccc2cnccc12)c1c[nH]c2ccccc12 [a131, (Z)-2-(1H-indol-3-yl)-3-(5-isoquinolyl)prop-2-enenitrile]
ED score [1]: 0.3144 | ΔTm at 100 µM ([1]; read-out: mean Delta Tm): 2.01 °C | inhibition of the Ras/Raf/MEK/ERK pathway (ERK phosphorylation) (Ras/Raf/MEK/ERK pathway): Neither a131 and a166 treatment nor PI5P4Ks knockdown inhibited | GI50 (U2OS): 1500 nM | apoptosis (cleaved caspase-3) in tumor versus surrounding normal tissue [2]: induced apoptosis only in tumors, but not surrounding normal tissues | tumor growth of GICs in brain explants (Day 4/Day 0) [2]: significantly suppressed growth | GI50 (WI38): 3400 nM | PIK3IP1 mRNA and protein levels (PIK3IP1; normal BJ cells): up-regulation of PIK3IP1 at both the mRNA and protein levels | PIK3IP1 mRNA expression (PIK3IP1; transformed BJ cells): unresponsive | GI50 (HT29): 900 nM | growth of GICs in tumor spheroid culture [3]: significantly suppressed growth | ED score [4]: 0.291 | ΔTm at 100 µM ([4]; read-out: mean Delta Tm): 2.17 °C | GI50 (SNU-16): 1000 nM
